# Measured values: the supplement of paper PMC10627819
# Columns and labels:
# Assay in all cases: Bliss interaction score (quartile over a dose matrix) (fitness difference); higher = more antagonism (negative = synergy)
# [1] = system: S. aureus Newman
# How it was run: (§1)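 Each plate was normalised to the robust mean of its own no-drug wells, using OD595 at entry into stationary phase, with values capped at 1. This normalised growth is the fitness value. The Bliss score is the difference between observed and product-expected fitness, with single-drug fitness inferred from the combination data and quartiles taken over technical, biological and donor/recipient replicates.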
# [2] = system: S. aureus DSM 20231
# How it was run: as §1
# [3] = system: B. subtilis 168
# How it was run: as §1
# [4] = system: S. pneumoniae D39V
# How it was run: as §1
# 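Further: first quartile when negative (synergy) and third quartile when positive (antagonism).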
Structure (SMILES),Bliss interaction score [1],Bliss interaction score [2],Bliss interaction score [3],Bliss interaction score [4],Bliss interaction score ([1]; main component drawn),Bliss interaction score ([2]; main component drawn),Bliss interaction score ([3]; main component drawn),Bliss interaction score ([4]; main component drawn)
CO[C@@]12[C@H](COC(N)=O)C3=C(C(=O)C(C)=C(N)C3=O)N1C[C@@H]1N[C@@H]12 [MitomycinC] + CCN(CC)CCOC(=O)c1ccc(N)cc1 [Procaine],0.0275,0.0322,0.0575,0.0639,,,,
CO[C@@]12[C@H](COC(N)=O)C3=C(C(=O)C(C)=C(N)C3=O)N1C[C@@H]1N[C@@H]12 [MitomycinC] + CC[C@H]1OC(=O)[C@H](C)C(=O)[C@H](C)[C@@H](O[C@@H]2O[C@H](C)C[C@H](N(C)C)[C@H]2O)[C@](C)(OC)C[C@@H](C)C(=O)[C@H](C)[C@H]2N(CCCCn3cnc(-c4cccnc4)c3)C(=O)O[C@]12C [Telithromycin],-0.0269,-0.0567,0.0694,-0.102,,,,
CO[C@@]12[C@H](COC(N)=O)C3=C(C(=O)C(C)=C(N)C3=O)N1C[C@@H]1N[C@@H]12 [MitomycinC] + CN1C2=CC=CC=C2N=C3C1=CC=CC3=O [Pyocyanin],-0.0681,0.0464,0.0608,0.0705,,,,
CO[C@@]12[C@H](COC(N)=O)C3=C(C(=O)C(C)=C(N)C3=O)N1C[C@@H]1N[C@@H]12 [MitomycinC] + CN(C)c1cc(NC(=O)CNC(C)(C)C)c(O)c2c1C[C@H]1C[C@H]3[C@H](N(C)C)C(O)=C(C(N)=O)C(=O)[C@@]3(O)C(O)=C1C2=O [Tigecycline],-0.0488,0.0285,0.245,0.0464,,,,
CO[C@@]12[C@H](COC(N)=O)C3=C(C(=O)C(C)=C(N)C3=O)N1C[C@@H]1N[C@@H]12 [MitomycinC] + CN(N=O)C(=O)N[C@@H](C=O)[C@@H](O)[C@H](O)[C@H](O)CO [Streptozotocin],0.0483,0.0493,-0.037,-0.0613,,,,
CO[C@@]12[C@H](COC(N)=O)C3=C(C(=O)C(C)=C(N)C3=O)N1C[C@@H]1N[C@@H]12 [MitomycinC] + CN[C@@H]1[C@H](O)[C@H](NC)[C@H]2O[C@@]3(O)C(=O)C[C@@H](C)O[C@H]3O[C@@H]2[C@H]1O [Spectinomycin],-0.0974,0.0772,0.0749,-0.06,,,,
CO[C@@]12[C@H](COC(N)=O)C3=C(C(=O)C(C)=C(N)C3=O)N1C[C@@H]1N[C@@H]12 [MitomycinC] + CN[C@@H]1[C@H](O[C@H]2[C@H](O[C@H]3[C@H](O)[C@@H](O)[C@H](N=C(N)N)[C@@H](O)[C@@H]3N=C(N)N)O[C@@H](C)[C@]2(O)C=O)O[C@@H](CO)[C@H](O)[C@H]1O [Streptomycin],-0.078,-0.117,-0.21,-0.072,,,,
CO[C@@]12[C@H](COC(N)=O)C3=C(C(=O)C(C)=C(N)C3=O)N1C[C@@H]1N[C@@H]12 [MitomycinC] + CN[C@H](CC(C)C)C(=O)N[C@H]1C(=O)N[C@@H](CC(N)=O)C(=O)N[C@H]2C(=O)N[C@H]3C(=O)N[C@H](C(=O)N[C@H](C(=O)O)c4cc(O)cc(O)c4-c4cc3ccc4O)[C@H](O)c3ccc(c(Cl)c3)Oc3cc2cc(c3O[C@@H]2O[C@H](CO)[C@@H](O)[C@H](O)[C@H]2O[C@H]2C[C@](C)(N)[C@H](O)[C@H](C)O2)Oc2ccc(cc2Cl)[C@H]1O [Vancomycin],-0.0526,0.0497,0.0157,0.124,,,,
CO[C@@]12[C@H](COC(N)=O)C3=C(C(=O)C(C)=C(N)C3=O)N1C[C@@H]1N[C@@H]12 [MitomycinC] + CN[C@H](CC(C)C)C(=O)N[C@H]1C(=O)N[C@@H](CC(N)=O)C(=O)N[C@H]2C(=O)N[C@H]3C(=O)N[C@H](C(=O)N[C@H](C(=O)O)c4cc(O)cc(O)c4-c4cc3ccc4O)[C@H](O[C@H]3C[C@](C)(N)[C@@H](O)[C@H](C)O3)c3ccc(c(Cl)c3)Oc3cc2cc(c3O[C@@H]2O[C@H](CO)[C@@H](O)[C@H](O)[C@H]2O[C@H]2C[C@](C)(NCc3ccc(-c4ccc(Cl)cc4)cc3)[C@@H](O)[C@H](C)O2)Oc2ccc(cc2Cl)[C@H]1O [Oritavancin],0.0841,-0.0806,0.017,-0.0514,,,,
CO[C@@]12[C@H](COC(N)=O)C3=C(C(=O)C(C)=C(N)C3=O)N1C[C@@H]1N[C@@H]12 [MitomycinC] + CO[C@@H]1[C@@H](OC(N)=O)[C@@H](O)[C@H](Oc2ccc3c(O)c(NC(=O)c4ccc(O)c(CC=C(C)C)c4)c(=O)oc3c2C)OC1(C)C [Novobiocin],-0.137,-0.0588,-0.117,-0.11,,,,
CO[C@@]12[C@H](COC(N)=O)C3=C(C(=O)C(C)=C(N)C3=O)N1C[C@@H]1N[C@@H]12 [MitomycinC] + CO[C@H]1/C=C/O[C@@]2(C)Oc3c(C)c(O)c4c(O)c(c(/C=N/N5CCN(C)CC5)c(O)c4c3C2=O)NC(=O)/C(C)=C\C=C\[C@H](C)[C@H](O)[C@@H](C)[C@@H](O)[C@@H](C)[C@H](OC(C)=O)[C@@H]1C [Rifampicin],-0.0175,-0.0914,0.155,-0.117,,,,
CO[C@@]12[C@H](COC(N)=O)C3=C(C(=O)C(C)=C(N)C3=O)N1C[C@@H]1N[C@@H]12 [MitomycinC] + COc1c(N2C[C@@H]3CCCN[C@@H]3C2)c(F)cc2c(=O)c(C(=O)O)cn(C3CC3)c12 [Moxifloxacin],-0.099,0.07,0.0263,0.056,,,,
CO[C@@]12[C@H](COC(N)=O)C3=C(C(=O)C(C)=C(N)C3=O)N1C[C@@H]1N[C@@H]12 [MitomycinC] + COc1cc(Cc2cnc(N)nc2N)cc(OC)c1OC [Trimethoprim],-0.127,-0.102,-0.108,-0.141,,,,
CO[C@@]12[C@H](COC(N)=O)C3=C(C(=O)C(C)=C(N)C3=O)N1C[C@@H]1N[C@@H]12 [MitomycinC] + COc1ccc(C[C@H](N)C(=O)N[C@H]2[C@@H](O)[C@H](n3cnc4c(N(C)C)ncnc43)O[C@@H]2CO)cc1 [Puromycin],0.0521,0.0528,-0.0693,0.0762,,,,
CO[C@@]12[C@H](COC(N)=O)C3=C(C(=O)C(C)=C(N)C3=O)N1C[C@@H]1N[C@@H]12 [MitomycinC] + C[n+]1ccc(-c2cc[n+](C)cc2)cc1 [Paraquat],0.04,-0.0406,0.0434,-0.0446,,,,
CO[C@@]12[C@H](COC(N)=O)C3=C(C(=O)C(C)=C(N)C3=O)N1C[C@@H]1N[C@@H]12 [MitomycinC] + Cc1cc(NS(=O)(=O)c2ccc(N)cc2)no1 [Sulfamethoxazol],0.0863,0.036,0.082,-0.0583,,,,
CO[C@@]12[C@H](COC(N)=O)C3=C(C(=O)C(C)=C(N)C3=O)N1C[C@@H]1N[C@@H]12 [MitomycinC] + Cc1onc(-c2ccccc2)c1C(=O)N[C@@H]1C(=O)N2[C@@H]1SC(C)(C)[C@@H]2C(=O)O [Oxacillin],0.046,0.0499,-0.0799,0.0896,,,,
CO[C@@]12[C@H](COC(N)=O)C3=C(C(=O)C(C)=C(N)C3=O)N1C[C@@H]1N[C@@H]12 [MitomycinC] + Cn1nnc(-c2ccc(-c3ccc(N4C[C@H](CO)OC4=O)cc3F)cn2)n1 [Tedizolid],-0.0886,-0.0817,0.0705,-0.124,,,,
CO[C@@]12[C@H](COC(N)=O)C3=C(C(=O)C(C)=C(N)C3=O)N1C[C@@H]1N[C@@H]12 [MitomycinC] + O=C1CN(/N=C/c2ccc([N+](=O)[O-])o2)C(=O)N1 [Nitrofurantoin],-0.0345,-0.0298,-0.0788,-0.145,,,,
CO[C@@]12[C@H](COC(N)=O)C3=C(C(=O)C(C)=C(N)C3=O)N1C[C@@H]1N[C@@H]12 [MitomycinC] + Oc1cc(Cl)ccc1Oc1ccc(Cl)cc1Cl [Triclosan],-0.0343,-0.025,-0.0544,0.0578,,,,
CO[C@@H]1[C@@H](OC(N)=O)[C@@H](O)[C@H](Oc2ccc3c(O)c(NC(=O)c4ccc(O)c(CC=C(C)C)c4)c(=O)oc3c2C)OC1(C)C [Novobiocin] + C/C(=C\C(=O)OCCCCCCCCC(=O)O)C[C@@H]1OC[C@H](C[C@@H]2O[C@H]2[C@@H](C)[C@H](C)O)[C@@H](O)[C@H]1O [Pseudomonic acid],-0.0166,-0.0173,-0.0516,0.241,,,,
CO[C@@H]1[C@@H](OC(N)=O)[C@@H](O)[C@H](Oc2ccc3c(O)c(NC(=O)c4ccc(O)c(CC=C(C)C)c4)c(=O)oc3c2C)OC1(C)C [Novobiocin] + CC1(C)S[C@@H]2[C@H](NC(=O)Cc3ccccc3)C(=O)N2[C@H]1C(=O)O [PenicillinG],-0.0408,-0.0356,0.0716,-0.0976,,,,
CO[C@@H]1[C@@H](OC(N)=O)[C@@H](O)[C@H](Oc2ccc3c(O)c(NC(=O)c4ccc(O)c(CC=C(C)C)c4)c(=O)oc3c2C)OC1(C)C [Novobiocin] + CCCCCCCCCC(=O)N[C@@H]1[C@H]([C@@H]([C@H](O[C@H]1OC2=C3C=C4C=C2OC5=C(C=C(C=C5)[C@H]([C@H]6C(=O)N[C@@H](C7=C(C(=CC(=C7)O)OC8[C@H]([C@H]([C@@H]([C@H](O8)CO)O)O)O)C9=C(C=CC(=C9)[C@H](C(=O)N6)NC(=O)[C@@H]4NC(=O)[C@@H]1C2=CC(=CC(=C2)OC2=C(C=CC(=C2)[C@H](C(=O)N[C@H](CC2=CC(=C(O3)C=C2)Cl)C(=O)N1)N)O)O)O)C(=O)O)O[C@H]1[C@@H]([C@H]([C@@H]([C@H](O1)CO)O)O)NC(=O)C)Cl)CO)O)O [Teicoplanin],,,,,-0.234,-0.102,0.127,0.0574
CO[C@@H]1[C@@H](OC(N)=O)[C@@H](O)[C@H](Oc2ccc3c(O)c(NC(=O)c4ccc(O)c(CC=C(C)C)c4)c(=O)oc3c2C)OC1(C)C [Novobiocin] + CC[C@H]1OC(=O)[C@H](C)C(=O)[C@H](C)[C@@H](O[C@@H]2O[C@H](C)C[C@H](N(C)C)[C@H]2O)[C@](C)(OC)C[C@@H](C)C(=O)[C@H](C)[C@H]2N(CCCCn3cnc(-c4cccnc4)c3)C(=O)O[C@]12C [Telithromycin],-0.0192,0.0515,0.0833,0.0464,,,,
CO[C@@H]1[C@@H](OC(N)=O)[C@@H](O)[C@H](Oc2ccc3c(O)c(NC(=O)c4ccc(O)c(CC=C(C)C)c4)c(=O)oc3c2C)OC1(C)C [Novobiocin] + CN[C@H](CC(C)C)C(=O)N[C@H]1C(=O)N[C@@H](CC(N)=O)C(=O)N[C@H]2C(=O)N[C@H]3C(=O)N[C@H](C(=O)N[C@H](C(=O)O)c4cc(O)cc(O)c4-c4cc3ccc4O)[C@H](O)c3ccc(c(Cl)c3)Oc3cc2cc(c3O[C@@H]2O[C@H](CO)[C@@H](O)[C@H](O)[C@H]2O[C@H]2C[C@](C)(N)[C@H](O)[C@H](C)O2)Oc2ccc(cc2Cl)[C@H]1O [Vancomycin],-0.0447,-0.0386,0.071,-0.133,,,,
CO[C@@H]1[C@@H](OC(N)=O)[C@@H](O)[C@H](Oc2ccc3c(O)c(NC(=O)c4ccc(O)c(CC=C(C)C)c4)c(=O)oc3c2C)OC1(C)C [Novobiocin] + CN[C@H](CC(C)C)C(=O)N[C@H]1C(=O)N[C@@H](CC(N)=O)C(=O)N[C@H]2C(=O)N[C@H]3C(=O)N[C@H](C(=O)N[C@H](C(=O)O)c4cc(O)cc(O)c4-c4cc3ccc4O)[C@H](O[C@H]3C[C@](C)(N)[C@@H](O)[C@H](C)O3)c3ccc(c(Cl)c3)Oc3cc2cc(c3O[C@@H]2O[C@H](CO)[C@@H](O)[C@H](O)[C@H]2O[C@H]2C[C@](C)(NCc3ccc(-c4ccc(Cl)cc4)cc3)[C@@H](O)[C@H](C)O2)Oc2ccc(cc2Cl)[C@H]1O [Oritavancin],-0.0768,-0.0612,-0.0421,0.0403,,,,
